Results taken from ChEMBL document CHEMBL1275276, “Analysis of physico-chemical properties of substrates of ABC and MFS multidrug transporters of pathogenic Candida albicans” (2010).
Activity calls are given as the source filed them. How the calls were made is not given here. Numbered stars: 1 amine (or outer) side, 2 acyl side, 3 side chain; on linkers, the order of the positions; unused ones are H or OH. Bridge positions count the residues as written; N and C are the ends. Square brackets hold non-standard residues; d marks the D form. Peptide text beside a SMILES is read from it. I, II: the chains in the order shown. Actinocin(1to9) = Cc1c2oc3c(C)ccc(C(=O)[*:2])c3nc-2c(C(=O)[*:1])c(N)c1=O; NMeV = CN[C@H](C(=O)O)C(C)C; Sar = CNCC(=O)O

Experiments:
[1] = system: Candida albicans; assay: Binding affinity to Candida albicans CaCdr1p expressed in yeast AD1-8u
[2] = system: Saccharomyces cerevisiae; assay: Antifungal activity against yeast AD1-8u expressing Candida albicans CaMdr1p by agar disk diffusion assay; format: functional; further: test concentration or dose not given here
[3] = system: Candida albicans; assay: Binding affinity to Candida albicans CaMdr1p expressed in yeast AD1-8u
[4] = system: Saccharomyces cerevisiae; assay: Antifungal activity against yeast AD1-8u expressing Candida albicans CaCdr1p by agar disk diffusion assay; format: functional
Wherever IZ is given: test concentration or dose not given here.

SMILES	Activity [1]	inhibition zone (IZ) [2] [cm]	Activity [3]	inhibition zone (IZ) [4] [cm]
O=c1c(O)c(-c2ccc(O)c(O)c2)oc2cc(O)cc(O)c12 [QUERCETIN]	inactive	0	inactive	0
COc1ccc(CCN(C)CCCC(C#N)(c2ccc(OC)c(OC)c2)C(C)C)cc1OC (stereo unspecified)	Active	0	inactive	0.9
c1c[nH]cn1 [IMIDAZOLE]	inactive	0	inactive	0
COc1cc2c(c(OC)c1OC)-c1ccc(OC)c(=O)cc1[C@@H](NC(C)=O)CC2 [COLCHICINE]	inactive	0	inactive	0
CC(=O)Nc1c2sscc-2n(C)c1=O [THIOLUTIN]	inactive	0.7	Active	0
c1ccc(C(c2ccccc2)(c2ccccc2)c2ncc[nH]2)cc1 [TRITYL IMIDAZOLE]	Active	0	inactive	1.3
OCCN1CCN(CCCN2c3ccccc3Sc3ccc(C(F)(F)F)cc32)CC1 [FLUPHENAZINE]	Active	0.2	inactive	0.3
CC[C@]1(O)C[C@@H]2CN(CCc3c([nH]c4ccccc34)[C@@](C(=O)OC)(c3cc4c(cc3OC)N(C)[C@H]3[C@@](O)(C(=O)OC)[C@H](OC(C)=O)[C@]5(CC)C=CCN6CC[C@]43[C@@H]65)C2)C1 [VINBLASTINE]	Active	0	inactive	0.6
CN(Cc1cnc2nc(N)nc(N)c2n1)c1ccc(C(=O)N[C@@H](CCC(=O)O)C(=O)O)cc1 [METHOTREXATE]	inactive	0.8	Active	0.1
CCCCCCCCCCCCn1cncn1	Active	0.1	inactive	0.7
O=P1(N(CCCl)CCCl)NCCCO1 (stereo unspecified) [CYCLOPHOSPHAMIDE ANHYDROUS]	inactive	0	inactive	0
Oc1cccc2cccnc12 [OXYQUINOLINE]	inactive	0	inactive	0
Cc1c2oc3c(C)ccc(C(=O)N[C@@H]4C(=O)N[C@H](C(C)C)C(=O)N5CCC[C@H]5C(=O)N(C)CC(=O)N(C)[C@@H](C(C)C)C(=O)O[C@@H]4C)c3nc-2c(C(=O)N[C@@H]2C(=O)N[C@H](C(C)C)C(=O)N3CCC[C@H]3C(=O)N(C)CC(=O)N(C)[C@@H](C(C)C)C(=O)O[C@@H]2C)c(N)c1=O [DACTINOMYCIN] (I: T[dV]P[Sar][NMeV] / II: T[dV]P[Sar][NMeV]; ester I:1-I:C, II:1-II:C; linker I:N-II:N via Actinocin(1to9))	inactive	0.3	Active	0.1
CN(C/C=C/C#CC(C)(C)C)Cc1cccc2ccccc12 [TERBINAFINE]	Active	0	inactive	1.2
COc1ccc2c3c([nH]c2c1)[C@H](C=C(C)C)N1C(=O)[C@@H]2CCCN2C(=O)[C@@H]1C3 [FUMITREMORGIN]	inactive	0	inactive	0
CC[C@@]1(O)C(=O)OCc2c1cc1n(c2=O)Cc2cc3c(CN(C)C)c(O)ccc3nc2-1 [TOPOTECAN]	Active	0.2	inactive	0.5
COc1ccc2c(c1)c(CC(=O)O)c(C)n2C(=O)c1ccc(Cl)cc1 [INDOMETHACIN]	inactive	0	inactive	0

SMILES	Activity [1]	inhibition zone (IZ) [2] [cm]	Activity [3]	inhibition zone (IZ) [4] [cm]
OC(Cn1cncn1)(Cn1cncn1)c1ccc(F)cc1F [FLUCONAZOLE]	Active	1.6	Active	2.3
CON(C)C(=O)Nc1ccc(Cl)c(Cl)c1 [LINURON]	Active	0.6	Active	0.8
O=C(N[C@H](CO)[C@H](O)c1ccc([N+](=O)[O-])cc1)C(Cl)Cl [CHLORAMPHENICOL]	Active	0	inactive	0.8
c1ccc(CNc2ncnc3[nH]cnc23)cc1 [6-BENZYLAMINOPURINE]	inactive	0	inactive	0
CC(=O)[C@H]1CC[C@H]2[C@@H]3CCC4=CC(=O)CC[C@]4(C)[C@H]3CC[C@]12C [PROGESTERONE]	inactive	0	inactive	0
COc1ccc2cc3[n+](cc2c1OC)CCc1cc2c(cc1-3)OCO2.[Cl-] [BERBERINE CHLORIDE]	Active	0	inactive	0.5
Clc1ccc(COC(Cn2ccnc2)c2ccc(Cl)cc2Cl)c(Cl)c1 (stereo unspecified) [MICONAZOLE]	Active	0.2	inactive	0.5
COC(=O)C1=C(C)NC(C)=C(C(=O)OC)C1c1ccccc1[N+](=O)[O-] [NIFEDIPINE]	inactive	0	inactive	0
C[C@@H]1O[C@@H](O[C@H]2C[C@@H](O)[C@]3(CO)[C@H]4[C@H](O)C[C@]5(C)[C@@H](C6=CC(=O)OC6)CC[C@]5(O)[C@@H]4CC[C@]3(O)C2)[C@H](O)[C@H](O)[C@H]1O [OUABAIN]	inactive	0	inactive	0
CCC[C@@H]1C[C@@H](C(=O)N[C@@H]([C@H]2O[C@H](SC)[C@H](O)[C@@H](O)[C@H]2O)[C@@H](C)O)N(C)C1 [LINCOMYCIN]	inactive	0	inactive	0
CO[C@H]1/C=C/O[C@@]2(C)Oc3c(C)c(O)c4c(O)c(c(/C=N/N5CCN(C)CC5)c(O)c4c3C2=O)NC(=O)/C(C)=C\C=C\[C@H](C)[C@H](O)[C@@H](C)[C@@H](O)[C@@H](C)[C@H](OC(C)=O)[C@@H]1C [RIFAMPIN]	inactive	0	inactive	0
CC(=O)O[C@H]1C(=O)[C@@]2(C)[C@H]([C@H](OC(=O)c3ccccc3)[C@]3(O)C[C@H](OC(=O)[C@H](O)[C@@H](NC(=O)c4ccccc4)c4ccccc4)C(C)=C1C3(C)C)[C@]1(OC(C)=O)CO[C@@H]1C[C@@H]2O [PACLITAXEL]	inactive	0	inactive	0
O=[N+]([O-])c1cc[n+]([O-])c2ccccc12 [4-NITROQUINOLINE-1-OXIDE]	Active	0.4	Active	0.3
CO[C@@H]1[C@@H](OC(N)=O)[C@@H](O)[C@H](Oc2ccc3c(O)c(NC(=O)c4ccc(O)c(CC=C(C)C)c4)c(=O)oc3c2C)OC1(C)C [NOVOBIOCIN]	inactive	0	inactive	0
C[C@@H]1C[C@H]2[C@@H]3CCC4=CC(=O)C=C[C@]4(C)[C@@]3(F)[C@@H](O)C[C@]2(C)[C@@]1(O)C(=O)CO [DEXAMETHASONE]	Active	0	inactive	0.9
CC/N=c1\cc2oc3cc(NCC)c(C)cc3c(-c3ccccc3C(=O)OCC)c-2cc1C.Cl [RHODAMINE 6G HYDROCHLORIDE]	Active	0.2	inactive	0.8
CN[C@H]1C[C@@H](N)[C@H](O)[C@@H](O[C@@H]2O[C@H](CO)[C@H](O)[C@H]3O[C@@]4(O[C@H]23)O[C@H]([C@H](N)CO)[C@H](O)[C@H](O)[C@H]4O)[C@@H]1O	inactive	0	inactive	0
